{
  "source": "patent US20230117831A1",
  "about": "“MULTI-FUNCTIONAL CHIMERIC MOLECULES” (THE BROAD INSTITUTE, INC., priority 2020, published 2023)",
  "origin": "cited, not measured here",
  "key": {"[1]": {"biological_target": "PKC gamma (Homo sapiens, UniProt P05129)", "settings": "cited from earlier work"}, "[2]": {"biological_target": "PKC delta (Homo sapiens, UniProt Q05655)", "sequence (Q05655 whole entry)": "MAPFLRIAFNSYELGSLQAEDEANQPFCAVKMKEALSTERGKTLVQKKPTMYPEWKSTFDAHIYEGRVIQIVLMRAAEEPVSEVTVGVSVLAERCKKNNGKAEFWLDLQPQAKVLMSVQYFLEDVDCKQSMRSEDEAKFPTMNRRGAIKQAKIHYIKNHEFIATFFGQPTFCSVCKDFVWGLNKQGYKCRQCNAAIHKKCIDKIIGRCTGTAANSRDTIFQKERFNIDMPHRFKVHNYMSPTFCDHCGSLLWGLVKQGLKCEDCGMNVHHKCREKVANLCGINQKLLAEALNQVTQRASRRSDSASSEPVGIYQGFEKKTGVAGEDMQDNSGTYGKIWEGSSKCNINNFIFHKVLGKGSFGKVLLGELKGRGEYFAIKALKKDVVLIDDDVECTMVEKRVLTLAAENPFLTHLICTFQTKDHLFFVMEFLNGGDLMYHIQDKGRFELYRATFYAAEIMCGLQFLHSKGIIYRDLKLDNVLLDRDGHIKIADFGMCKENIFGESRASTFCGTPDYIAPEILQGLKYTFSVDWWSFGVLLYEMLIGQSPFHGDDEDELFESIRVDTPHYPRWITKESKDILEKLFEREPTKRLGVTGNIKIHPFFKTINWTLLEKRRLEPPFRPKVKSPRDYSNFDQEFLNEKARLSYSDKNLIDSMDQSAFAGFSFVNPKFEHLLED", "settings": "PKC delta; read-out: Kd; cited from earlier work"}, "[3]": {"biological_target": "PKCalpha (Homo sapiens, UniProt P17252)", "settings": "cited from earlier work"}, "[4]": {"biological_target": "T1, PKC epsilon (Homo sapiens, UniProt Q02156)", "T1 sequence (Q02156 1-737)": "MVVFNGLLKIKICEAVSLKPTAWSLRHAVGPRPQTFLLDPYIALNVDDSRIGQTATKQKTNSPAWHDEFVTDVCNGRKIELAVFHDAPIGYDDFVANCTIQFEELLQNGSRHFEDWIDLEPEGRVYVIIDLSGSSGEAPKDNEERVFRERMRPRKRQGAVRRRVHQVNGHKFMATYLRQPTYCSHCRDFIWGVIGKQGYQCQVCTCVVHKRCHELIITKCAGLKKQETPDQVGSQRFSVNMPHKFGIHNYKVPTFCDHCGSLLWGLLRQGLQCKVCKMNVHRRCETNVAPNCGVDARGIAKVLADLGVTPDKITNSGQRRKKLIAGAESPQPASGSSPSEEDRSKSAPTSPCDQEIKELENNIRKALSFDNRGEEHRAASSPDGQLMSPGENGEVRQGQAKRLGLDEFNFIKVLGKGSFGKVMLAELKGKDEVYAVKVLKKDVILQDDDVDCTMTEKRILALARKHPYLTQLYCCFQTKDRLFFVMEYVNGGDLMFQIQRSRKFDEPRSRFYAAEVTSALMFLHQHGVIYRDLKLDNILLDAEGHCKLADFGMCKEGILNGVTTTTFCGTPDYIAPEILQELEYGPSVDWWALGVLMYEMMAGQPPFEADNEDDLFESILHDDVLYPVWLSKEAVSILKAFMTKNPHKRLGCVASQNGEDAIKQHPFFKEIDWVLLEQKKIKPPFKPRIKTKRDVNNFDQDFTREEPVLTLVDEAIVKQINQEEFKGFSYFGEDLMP", "settings": "PKC epsilon; read-out: Kd; cited from earlier work"}, "[5]": {"biological_target": "PKC beta (Homo sapiens, UniProt P05771)", "sequence (P05771 whole entry)": "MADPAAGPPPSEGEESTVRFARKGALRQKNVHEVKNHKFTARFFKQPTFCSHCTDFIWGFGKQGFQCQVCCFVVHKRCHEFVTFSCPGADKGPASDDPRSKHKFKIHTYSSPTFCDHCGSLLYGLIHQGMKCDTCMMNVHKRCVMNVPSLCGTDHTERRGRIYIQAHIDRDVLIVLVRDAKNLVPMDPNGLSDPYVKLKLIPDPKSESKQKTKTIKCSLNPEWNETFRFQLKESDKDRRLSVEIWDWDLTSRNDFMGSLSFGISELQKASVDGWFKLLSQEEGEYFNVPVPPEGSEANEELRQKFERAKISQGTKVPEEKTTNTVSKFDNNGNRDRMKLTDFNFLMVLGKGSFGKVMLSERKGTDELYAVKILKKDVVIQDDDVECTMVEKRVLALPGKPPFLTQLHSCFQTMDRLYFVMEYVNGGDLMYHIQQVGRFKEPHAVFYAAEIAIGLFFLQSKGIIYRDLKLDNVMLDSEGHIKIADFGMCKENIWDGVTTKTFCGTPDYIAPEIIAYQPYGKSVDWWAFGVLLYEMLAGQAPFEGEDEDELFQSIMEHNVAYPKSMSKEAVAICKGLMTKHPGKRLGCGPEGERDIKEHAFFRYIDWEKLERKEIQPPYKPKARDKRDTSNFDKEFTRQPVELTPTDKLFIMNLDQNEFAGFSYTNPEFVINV", "settings": "PKC beta; read-out: Kd; cited from earlier work"}},
  "note": "Read-outs that look alike come from different tables or passages of the source.",
  "data": [
    {"smiles": "CCCCCCCCCCc1ccc2c(c1)C[C@@H](CO)NC(=O)[C@H](C(C)C)N2C", "values": [
      {"measurement": "Kd", "setting": "[1]", "result": 140, "unit": "nM"},
      {"measurement": "Kd", "setting": "[2]", "result": 185, "unit": "nM"},
      {"measurement": "Kd", "setting": "[3]", "result": 46.6, "unit": "nM"},
      {"measurement": "Kd", "setting": "[4]", "result": 187, "unit": "nM"},
      {"measurement": "Kd", "setting": "[5]", "result": 58.2, "unit": "nM"}
    ]},
    {"smiles": "CCCCCCCCCCc1cccc2c1C[C@@H](CO)NC(=O)[C@H](C(C)C)N2C", "values": [
      {"measurement": "Kd", "setting": "[1]; PKC gamma, read-out: Kd", "result": 409, "unit": "nM"},
      {"measurement": "Kd", "setting": "[2]", "result": 169, "unit": "nM"},
      {"measurement": "Kd", "setting": "[3]; PKC alpha, read-out: Kd", "result": 513, "unit": "nM"},
      {"measurement": "Kd", "setting": "[4]", "result": 60, "unit": "nM"},
      {"measurement": "Kd", "setting": "[5]", "result": 309, "unit": "nM"}
    ]},
    {"smiles": "CCCCCCCCC#Cc1cccc2c1C[C@@H](CO)NC(=O)[C@H](C(C)C)N2C", "values": [
      {"measurement": "Kd", "setting": "[1]; PKC gamma, read-out: Kd", "result": "> 10000", "unit": "nM"},
      {"measurement": "Kd", "setting": "[2]", "result": 2100, "unit": "nM"},
      {"measurement": "Kd", "setting": "[3]; PKC alpha, read-out: Kd", "result": 4530, "unit": "nM"},
      {"measurement": "Kd", "setting": "[4]", "result": 2560, "unit": "nM"},
      {"measurement": "Kd", "setting": "[5]", "result": 1690, "unit": "nM"}
    ]},
    {"smiles": "CC(C)C1C(=O)NC(CO)Cc2cc(NC(=O)C=CC=Cc3ccccc3)ccc2N1C", "note": "(centres unmarked)", "values": [
      {"measurement": "Kd", "setting": "[3]; PKC alpha, read-out: Kd", "result": 15.8, "unit": "nM"}
    ]},
    {"smiles": "CC(C)[C@H]1C(=O)N[C@H](CO)Cc2cc(NC(=O)CCCCc3ccccc3)ccc2N1C", "values": [
      {"measurement": "Kd", "setting": "[3]; PKC alpha, read-out: Kd", "result": 34.2, "unit": "nM"}
    ]},
    {"smiles": "CC(C)[C@H]1C(=O)N[C@H](CO)Cc2cc(NC(=O)CCCCc3ccc(C(F)(F)F)cc3)ccc2N1C", "values": [
      {"measurement": "Kd", "setting": "[3]", "result": 12.5, "unit": "nM"}
    ]},
    {"smiles": "CC(C)[C@H]1C(=O)N[C@H](CO)Cc2cc(NC(=O)CCCCc3cc(C(F)(F)F)cc(C(F)(F)F)c3)ccc2N1C", "values": [
      {"measurement": "Kd", "setting": "[3]; PKC alpha, read-out: Kd", "result": 7.8, "unit": "nM"}
    ]},
    {"smiles": "CC(C)[C@H]1C(=O)N[C@H](CO)Cc2cc(NC(=O)CCCCc3ccc(/C=C/C(F)(F)C(F)(F)C(F)(F)C(F)(F)C(F)(F)C(F)(F)F)cc3)ccc2N1C", "values": [
      {"measurement": "Kd", "setting": "[3]; PKC alpha, read-out: Kd", "result": 11.2, "unit": "nM"}
    ]},
    {"smiles": "CC(C)[C@H]1C(=O)N[C@H](CO)Cc2cc(NC(=O)CCCCc3ccc(CCC(F)(F)C(F)(F)C(F)(F)C(F)(F)C(F)(F)C(F)(F)F)cc3)ccc2N1C", "values": [
      {"measurement": "Kd", "setting": "[3]; PKC alpha, read-out: Kd", "result": 9.2, "unit": "nM"}
    ]},
    {"smiles": "CC(C)[C@H]1C(=O)N[C@H](CO)Cc2ccccc2N1C", "values": [
      {"measurement": "Kd", "setting": "[3]; PKC alpha, read-out: Kd", "result": 334, "unit": "nM"}
    ]},
    {"smiles": "CCCCCCCCc1ccc2c3c(c[nH]c13)CC[C@@H](CO)NC(=O)[C@H](C(C)C)N2C", "values": [
      {"measurement": "Kd", "setting": "[1]; PKC gamma, read-out: Kd", "result": 1.2, "unit": "nM"},
      {"measurement": "Kd", "setting": "[2]", "result": 0.8, "unit": "nM"},
      {"measurement": "Kd", "setting": "[3]; PKC alpha, read-out: Kd", "result": 0.5, "unit": "nM"},
      {"measurement": "Kd", "setting": "[4]", "result": 1, "unit": "nM"},
      {"measurement": "Kd", "setting": "[5]", "result": 0.4, "unit": "nM"}
    ]},
    {"smiles": "CCCCCCCCC#Cc1ccccc1-c1ccc2c(c1)N(C)[C@@H](C(C)C)C(=O)NC(CO)C2", "note": "(some centres unmarked)", "values": [
      {"measurement": "Kd", "setting": "[3]; PKC alpha, read-out: Kd", "result": 3.6, "unit": "nM"}
    ]},
    {"smiles": "CCCCC#Cc1ccccc1-c1ccc2c(c1)N(C)[C@@H](C(C)C)C(=O)NC(CO)C2", "note": "(some centres unmarked)", "values": [
      {"measurement": "Kd", "setting": "[3]; PKC alpha, read-out: Kd", "result": 3.1, "unit": "nM"}
    ]},
    {"smiles": "CCCCCCCCC#Cc1cccc(-c2ccc3c(c2)C[C@@H](CO)NC(=O)[C@H](C(C)C)N3C)c1", "values": [
      {"measurement": "Kd", "setting": "[3]; PKC alpha, read-out: Kd", "result": 309, "unit": "nM"}
    ]},
    {"smiles": "CCCCCCCCC#Cc1cccc(-c2ccc3c(c2)N(C)[C@@H](C(C)C)C(=O)N[C@H](CO)C3)c1", "values": [
      {"measurement": "Kd", "setting": "[3]; PKC alpha, read-out: Kd", "result": 5.9, "unit": "nM"}
    ]},
    {"smiles": "CCCCC#Cc1cccc(-c2ccc3c(c2)N(C)[C@@H](C(C)C)C(=O)N[C@H](CO)C3)c1", "values": [
      {"measurement": "Kd", "setting": "[3]; PKC alpha, read-out: Kd", "result": 3, "unit": "nM"}
    ]},
    {"smiles": "CCCCCCCCC#Cc1ccc(-c2ccc3c(c2)C[C@@H](CO)NC(=O)[C@H](C(C)C)N3C)cc1", "values": [
      {"measurement": "Kd", "setting": "[3]; PKC alpha, read-out: Kd", "result": 703, "unit": "nM"}
    ]},
    {"smiles": "CCCCCCCCC#Cc1ccc(-c2ccc3c(c2)C[C@@H](CO)NC(=O)[C@H](C(C)C)N3C)s1", "values": [
      {"measurement": "Kd", "setting": "[3]; PKC alpha, read-out: Kd", "result": 396, "unit": "nM"}
    ]},
    {"smiles": "CCCCCCCCC#Cc1ccc(-c2ccc3c(c2)N(C)[C@@H](C(C)C)C(=O)N[C@H](CO)C3)s1", "values": [
      {"measurement": "Kd", "setting": "[3]; PKC alpha, read-out: Kd", "result": 25, "unit": "nM"}
    ]}
  ]
}
